The values that follow come from PubChem BioAssay (NCI).

SMILES strings stand for the structures. Several values for one entry are separate records, joined by “and”; a condition that tells them apart may be missing. Equal entries are not always repeated.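 Test compounds were applied to cells in 96-well plates for 48 hours at 5 doses. The concentration for 50% growth inhibition is given as GI50. Definition used: TGI = concentration required for complete inhibition of growth.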

What all share (assay): growth of human tumour cells (NCI), 48 h
The test system of assay [1] is NCI-H522 lung.
Assay [2] deals with CAKI-1 renal.
The subject of assay [3] is 786-0 renal.
Assay [4] concerns SNB-75 CNS.
The test system of assay [5] is RPMI-8226 leukemia.
The subject of assay [6] is SF-295 CNS.
For assay [7], the system named is K-562 leukemia.
Assay [8] has as its system NCI/ADR-RES ovarian.
Assay [9] relates to SF-268 CNS.
In assay [10] the test system is SK-OV-3 ovarian.
Assay [11] has as its system T-47D breast.

For the compound `O=c1[nH]/c(=C/c2ccc3c(c2)OCO3)c(=O)[nH]/c1=C/c1ccc2c(c1)OCO2`, the TGI in [1], in assay [2], in assay [3], in [4], in assay [5] and in assay [6] was above 10 µM throughout. In addition, the TGI in assay [7], in [8], in assay [9], in assay [10] and in [11] was above 10 µM in each case.

In the case of `CC(C)OC(=O)c1ccc(NCc2cc(O)ccc2O)cc1`, the TGI in assay [1] amounted to 0.638 µM; in [2], 2.81 µM; in assay [3], 10.3 µM; in [4], 18.6 µM; in assay [6], 20.4 µM; in [7], 6.98 µM. For the same compound, the TGI was 28.4 µM in assay [9], above 100 µM in assay [10] and 4.66 µM in assay [11].

In the case of `CC(C)(C)OC(=O)NC1CCCC1C(=O)C1=CCCC1` (configuration not stated), the TGI in assay [3], in assay [4], in assay [5], in [7], in assay [8] and in assay [9] was above 100 µM throughout. For the same compound, the TGI in [10] and in assay [11] was above 100 µM each time.

As for `O=c1[nH]nc(Cc2ccccc2)n1/N=C/c1cccs1`, the TGI in assay [2], in assay [3], in [4], in assay [5], in [6] and in assay [7] was above 100 µM in each case. For the same compound, the TGI in assay [8], in [9], in assay [10] and in assay [11] was above 100 µM throughout.

For `Cc1cccc(C2ON=C(c3ccccc3)N2C23CC4CC(CC(C4)C2)C3)c1` (configuration not stated), the TGI in [1], in assay [2], in [3], in assay [4], in [5] and in assay [6] was above 10 µM in each case. For the same compound, the TGI in assay [7], in assay [8], in assay [9], in assay [10] and in assay [11] was above 10 µM each time.

For `Brc1ccc(C2C3CSc4ccccc4C3=NN2c2ccccc2)cc1` (configuration not stated), the TGI in assay [2], in assay [3], in assay [4], in assay [5], in assay [7] and in assay [8] was above 100 µM in each case. The TGI in assay [9] was above 100 µM; in [10], above 100 µM; in assay [11], 86.3 µM.

Take `CCS(=O)C(=O)N(O)c1ccc(Cl)cc1` (configuration not stated): the TGI in assay [2] is 38.5 µM; in assay [3], 64.3 µM; in assay [4], above 100 µM; in assay [5], 20.4 µM; in assay [6], above 100 µM; in [7], 39.9 µM. Moreover, the TGI in assay [8] is 81.4 µM; in assay [9] it was 55.4 µM; in assay [10], above 100 µM; in assay [11] it was above 100 µM.

For `CSc1ncnc2c1cnn2Cc1cnnn1COCC(O)CO` (configuration not stated), the TGI was 29 µM in [1]; above 100 µM in [2]; above 100 µM in [3]; above 100 µM in assay [5]; above 100 µM in [6]; above 100 µM in [7]. In addition, the TGI in [8] was above 100 µM; in [9], 46.5 µM; in [10], above 100 µM; in assay [11], above 100 µM.

With `C[C@]12C=CC(=O)C=C1CC[C@@H]1[C@@H]2CC[C@@]2(C)[C@H]1CC[C@]2(O)C(N)=O`, the TGI in [1], in assay [3], in assay [4], in assay [5], in assay [6] and in [7] was above 100 µM throughout. Further, the TGI in assay [8], in assay [9], in assay [10] and in assay [11] was above 100 µM each time.

Regarding `CC1(C)CCN2C(=O)C34CCCC3CC21S4` (configuration not stated), the TGI in [1], in [2], in [3], in assay [5], in assay [6] and in [7] was above 100 µM throughout. The TGI in assay [8], in [9], in assay [10] and in [11] was above 100 µM throughout.

Regarding `O=C1Oc2ccccc2C1C/C(=N\Nc1ccccc1)c1ccccc1O` (configuration not stated), the TGI was 98 µM in [1]; above 100 µM in assay [2]; above 100 µM in assay [3]; above 100 µM in assay [4]; 72.3 µM in assay [5]; above 100 µM in assay [6]. Further, the TGI in assay [8] is 70.9 µM; in [9], above 100 µM; in [10], above 100 µM; in assay [11] it was 81.8 µM.

In the case of `CCOC(=O)C(NC(=O)OCc1ccccc1)C(=O)O` (configuration not stated), the TGI in assay [1], in assay [2], in assay [3], in assay [4], in [5] and in assay [6] was above 100 µM in each case. Besides, the TGI in assay [7], in assay [8], in [9] and in assay [11] was above 100 µM each time.

For the compound `CC1(C)C2CCC3CC(CCC#N)CCC3C21C#N` (configuration not stated), the TGI in assay [1], in assay [2], in assay [3], in [5], in assay [6] and in assay [7] was above 100 µM each time. The TGI in assay [8], in assay [9], in assay [10] and in assay [11] was above 100 µM each time.

On to `FC(F)(F)c1ccccc1C1SCC2=Nc3ccccc3CN21` (configuration not stated), for which the TGI in assay [2] is above 100 µM; in assay [3], 24.2 µM; in assay [4], 36.5 µM; in [5], above 100 µM; in [6], 26.2 µM; in assay [7] it was above 100 µM. The TGI was 35.7 µM in assay [8], 29.2 µM in [9], 42 µM in assay [10] and 38.4 µM in [11].

Consider `CCCCOCCOCCOC1=CC(=O)c2c(O)ccc(O)c2C1=O`, for which the TGI in [1] is 2.99 µM; in assay [2] it was 3.76 µM; in assay [3], 2.95 µM; in [5], above 10 µM; in [6] it was 3.06 µM; in [7], 6.25 µM. Also, the TGI in assay [8] is 5.14 µM; in assay [9], above 10 µM; in assay [10], above 10 µM; in assay [11] it was 6.16 µM.

With `CC1(C)OC(=O)C(C)(C)C(=O)O1`, the TGI in assay [1], in assay [2], in assay [3], in assay [4], in assay [6] and in assay [7] was above 100 µM each time. For the same compound, the TGI in [8], in [9], in assay [10] and in assay [11] was above 100 µM in each case.

For the compound `COc1ccccc1/C=C(/C)[N+](=O)[O-]`, the TGI in [1] is 2.91 µM and 3.2 µM; in assay [2], 4.85 µM and 1.92 µM; in assay [3] it was above 100 µM; in assay [4], > 100 µM and 54.7 µM; in assay [6], 20 µM and 6.33 µM; in [7], 5.15 µM and 7.34 µM. The TGI in [8] was 8.69 µM; in assay [9], 30.4 µM and 4.94 µM; in [11] it was 4.64 µM and 3.37 µM. The GI50 was 2.13 µM and 0.687 µM in [2]; 14.1 µM and 6.99 µM in assay [4]; 0.282 µM and 0.608 µM in assay [5]; 5.31 µM and 2.53 µM in [6]; 0.688 µM and 1.71 µM in assay [7]; 5.87 µM and 2.18 µM in [9].

In the case of `C#CC[C@@H]1C(=O)N(Cc2ccc(OC)cc2)[C@@H](C(C)C)C(=O)N1Cc1ccc(OC)cc1`, the TGI was 99.5 µM in [1]; above 100 µM in assay [2]; above 100 µM in assay [3]; 95 µM in [4]; above 100 µM in [6]; above 100 µM in [7]. For the same compound, the TGI was above 100 µM in [8], above 100 µM in assay [9], above 100 µM in [10] and 51.1 µM in assay [11].

Take `Cc1ccc(S(=O)c2cccs2)cc1` (configuration not stated): the TGI in [3], in [5], in [6], in [7], in assay [8] and in [9] was above 100 µM each time. In assay [11], this compound returned a TGI above 100 µM.

Turning to `COC(=O)C1(NC(=O)C(Cc2ccccc2)N(C(=O)OC(C)(C)C)C(=O)OC(C)(C)C)CCCC1` (configuration not stated), the TGI in [3] was above 10 µM; in assay [4], above 100 µM; in assay [5], 47.1 µM; in assay [7] it was above 100 µM; in [8], above 100 µM; in assay [9], above 100 µM. In addition, the TGI in assay [10] and in assay [11] was above 100 µM in each case.

Take `CCOC1OC(CO)C(O)CC1n1ccc(=O)[nH]c1=O` (configuration not stated): the TGI in [1], in assay [2], in assay [3], in assay [4], in [5] and in assay [6] was above 100 µM each time. Further, the TGI in [7], in [8], in assay [9] and in assay [11] was above 100 µM each time.

Take `O[C@]12C=C(c3nccc4c3[nH]c3ccccc34)[C@@H]3CCN(CCCC/C=C\CC1)C[C@@]31CC3/C=C\CCCCN3[C@H]12` (some centres not stated): the TGI was 2.21 µM in assay [1]; 6.17 µM in [2]; 0.615 µM in assay [3]; 2.88 µM in assay [4]; 2.67 µM in assay [6]; 2.84 µM in assay [7]. For the same compound, the TGI in [8] worked out at 4.16 µM; in [9] it was 8.59 µM; in [10] it was 0.743 µM; in assay [11] it was 4.67 µM.

For the compound `COc1ccc(Nc2nc3ccccc3n3cccc23)cc1OC`, the TGI in assay [1] is 31.2 µM; in assay [2], 89.1 µM; in [3], 35 µM; in assay [5], 54.3 µM; in assay [6], 35.4 µM; in assay [7], above 100 µM. Also, the TGI stood at 56.1 µM in assay [8], 53.3 µM in assay [9], 63.5 µM in [10] and 15.2 µM in assay [11].

In the case of `COc1ccc(/C=c2\c(=O)[nH]c3nc4ccccc4c(=O)n23)cc1`, the TGI in assay [1], in assay [2], in assay [3], in assay [4], in assay [5] and in assay [6] was above 100 µM in each case. The TGI in assay [8], in [9], in assay [10] and in assay [11] was above 100 µM throughout.

As for `CCOC(=O)N/N=C(/N)c1cccc(Br)c1`, the TGI in [1], in [2], in assay [3], in assay [4], in [6] and in [7] was above 100 µM in each case. Also, the TGI in [8], in assay [9], in assay [10] and in [11] was above 100 µM in each case.

Take `COc1ccc(C2c3cc4c(cc3OC(NNc3ccccc3)C2C)OCO4)cc1` (configuration not stated): the TGI in assay [1] was 94.6 µM; in assay [2], above 100 µM; in assay [3] it was 51.8 µM; in assay [4] it was above 100 µM; in [5], above 100 µM; in assay [6] it was above 100 µM. In addition, the TGI in [7], in assay [9], in [10] and in [11] was above 100 µM each time.

For the compound `CN(C)CCN(C)P12(Oc3ccccc3O1)Oc1c(Cl)c(Cl)c(Cl)c(Cl)c1O2`, the TGI in [3] is above 100 µM; in assay [4] it was 82 µM; in assay [5] it was above 100 µM; in assay [6] it was above 100 µM; in assay [7], above 100 µM; in assay [8], above 100 µM. The TGI in [9], in assay [10] and in assay [11] was above 100 µM in each case.
